Measured values reported in EP1192149B1, “1,4-DITHIIN AND 1,4-DITHIEPIN- 1,1,4,4, TETROXIDE DERIVATIVES USEFUL AS ANTAGONISTS OF THE HUMAN GALANIN RECEPTOR” (Ortho-McNeil Pharmaceutical, Inc., priority 1999, dated 2000).
Read-outs that look alike come from different tables or passages of the source.

Tests used:
hGALR-1 = target: T1, hGALR-1 (Homo sapiens, UniProt P47211); experiment: Human Galanin-1 Receptor Binding Assay (SPA, 125I human galanin displacement); conditions: membranes from human Bowes melanoma cells
T1 construct: hGALR-1 that is contained in membranes from human Bowes melanoma cells; endogenous in cells; host or cells: human Bowes melanoma cells (membranes)
T1 sequence (P47211 1-349): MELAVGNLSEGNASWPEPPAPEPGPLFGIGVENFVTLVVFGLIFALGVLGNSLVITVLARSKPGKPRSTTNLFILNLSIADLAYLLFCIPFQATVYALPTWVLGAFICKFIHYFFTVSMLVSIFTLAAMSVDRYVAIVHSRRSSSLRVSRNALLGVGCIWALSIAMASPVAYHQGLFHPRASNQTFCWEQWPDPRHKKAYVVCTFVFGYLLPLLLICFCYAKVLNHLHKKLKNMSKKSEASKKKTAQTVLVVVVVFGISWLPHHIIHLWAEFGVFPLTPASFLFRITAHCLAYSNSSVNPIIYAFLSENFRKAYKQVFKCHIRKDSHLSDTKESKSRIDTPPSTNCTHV
Protocol: This assay determines the concentration (IC50) of a test compound which prevents 50% of galanin from binding to the hGALR-1 that is contained in membranes from human Bowes melanoma cells bound to wheat germ agglutinin conjugated Scintillation Proximity Assay (SPA) beads. The IC50 value is obtained by measuring the effect of half log increment dilutions of the test compound in duplicate using a 96-well plate (eight-rows, 12-columns).
The SPA beads (500 mg) were dissolved in 12.5 mL of assay buffer composed of 20mM DMSO-HEPES (pH 7.4), 0.1% bovine serum albumin, 2mM MgCl2, 2mM CaCl2, and protease inhibitors. Enough of this suspension for five plates (25 µL x 5 x 96 wells = 12000 µL) was dispensed into a 50 mL sterile Falcon tube. The amount of membranes required for five plates was then added (50µg x 5 x 96 wells), followed by 32.5 mL of 30% DMSO-HEPES buffer. The mixture was placed on a rotator and agitated for 0.5 hours and the non-specific binding sites on the beads were blocked by the addition of 5% [final] fetal bovine serum. Each well of the 96-well plate received 100 µL of this mixture.
To the control column (column 12) rows A and B was added 3.75 µL of a 300 µM solution of galantide in 30% DMSO-HEPES buffer, to rows C and D was added 3.75 µL of 30% DMSO-HEPES buffer and to rows E and F was added 3.75 µL of a 300 µM solution of galanin in 30% DMSO-HEPES buffer. In columns 1 through 11 were added solutions of the test compound in 30% DMSO-HEPES buffer starting at 30 µM and decreasing in concentration in half-log dilutions. A solution of radioactive ^125I human galanin (46.25 µL), prepared from 25 micro Curies of ^125I human galanin (2000 ci/mmol) and 500 µL of assay buffer, was added to each well. The plate was sealed with adhesive paper and incubated for 16 hr at room temperature before the quench-corrected bound radioactivity was measured in a Topcount® apparatus. For each dilution, the % inhibition of galanin binding was calculated as follows: Total binding (T) = Mean counts/minute (cpm) in row C and D in column 12 [formula] Non-specific binding (NSB) = Mean cpm in row E and F in column 12 [formula] Total specific binding (TS) = T-NSB [formula] cpm in each well = C [formula] net cpm in each well (N) = C-NSB [formula] % inhibition = 100%-N × 100%/TS [formula]
The IC50 values for each compound were calculated from the non-linear regression curve of the data using Prism® graphics software.

Rat Galanin-1 Receptor = target: T2, Rat Galanin-1 Receptor (Rattus norvegicus, UniProt Q62805); experiment: Galanin-1 receptor mediated inhibition of acetylcholine release from rat brain cortical slices (superfusion, K+-evoked [3H]acetylcholine efflux); conditions: for Acetycholine Secretion Stimulated (change vs Control) / Acetycholine Secretion Stimulated: K+-evoked; for Acetycholine Secretion Basal / Acetycholine Secretion Stimulated: mean fractional tritium release
T2 construct: Rat brain cerebrocortical tissues were chopped into slices; from tissue; host or cells: rat brain cerebrocortical slices
T2 sequence (Q62805 1-346): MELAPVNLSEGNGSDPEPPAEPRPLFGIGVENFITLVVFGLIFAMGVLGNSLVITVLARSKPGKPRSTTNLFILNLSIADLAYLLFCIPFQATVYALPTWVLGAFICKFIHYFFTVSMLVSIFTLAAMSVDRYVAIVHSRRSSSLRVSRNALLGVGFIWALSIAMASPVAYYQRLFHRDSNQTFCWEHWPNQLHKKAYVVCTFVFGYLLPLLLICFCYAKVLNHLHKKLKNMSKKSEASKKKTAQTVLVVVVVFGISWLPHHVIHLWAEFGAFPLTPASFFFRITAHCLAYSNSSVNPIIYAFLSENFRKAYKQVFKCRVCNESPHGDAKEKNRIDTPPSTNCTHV
Protocol: Rat brain cerebrocortical tissues were chopped into slices of 300 x 300 x […] using a Mcllwain tissue chopper. The slices were washed and incubated at 37°C for 30 min in Krebs-Ringer solution: NaCl 118 mM, KCI 4.8 mM, CaCl2 1.3 mM, KH2PO4 1.2 mM, MgSO4 1.2 mM, NaHCO3, 25 mM, glucose […], ascorbic acid […] (previously aerated for 10 min with 95% O2/5% CO2 to obtain a pH of 7.4) and 0.1 µM [Methyl-^3H]choline chloride (85 Ci/mmol, Amersham Life Sciences, Arlington Heights, IL). After incubation, the slices were washed three times with ice-cold physiological solution and resuspended in 6 ml of cold solution. Equal aliquots of the tissue suspension were placed in each of 6 parallel superfusion chambers (Hugo Sachs Elektronik, March-Hugstetten, Germany). A circular piece of nylon mesh (pore size 250 um) was placed just below each chamber outlet in order to prevent the loss of tissue. The chambers were perfused against gravity with oxygenated Krebs-Ringer containing 1 mM physostigmine hemisulfate at a flow rate of 1 ml/min. At the concentration used, physostigmine had no effect on the release of total radioactivity from tissue slices. The onset of superfusion was defined as time zero (t0). Starting at 30 min after t0, 10 min fractions of the effluent were collected.
Release of [^3H]acetylcholine was induced by superfusing tissues for 30 sec with 65mM K^+-Krebs-Ringer solution (made by isomolar replacement of NaCl with KCI). Four potassium pulses were given respectively at 40 min (S1), 70 min (S2), 100 min (S3) and 130 min (S4) after to. No significant deterioration in fractional release was observed during the 4 consecutive stimuli. […] To permit construction of concentration-effect curves, concentrations of agents were increased 10 fold between each stimulus.
Following perfusion, the tissue was homogenized in 1 ml ethanol and aliquots of superfusates (0.4ml) and tissue homogenates (0.04ml) were added to 5 ml of Scintsafe PlusTM 50% (Fisher Scientific, Pittsburgh, PA) and radioactivity counted by liquid scintillation spectrometry. The total ^3H content in this procedure consisted mainly of [^3H]acetylcholine.
Tritium (^3H) efflux into the superfusate was calculated as the fraction of tritium content in the slices or synaptosomes at the onset of the respective collection period. For calculation of the stimulated tritium overflow, the estimated basal efflux (the average of the 10 min fractions immediately before and after each stimulation) was subtracted from the total tritium efflux during the 10 min fraction which began with the 30 sec K^+ pulse. This difference was then used to calculate the percent of K^+-evoked release of acetylcholine.
In order to quantify the in vitro effect of a drug on stimulated tritium outflow, the ratio of the fraction released by a given pulse, Sn, to that evoked by S1, was determined. Data presented below are expressed as the mean fractional tritium release ± S.E.M. Statistical differences between treatments were tested by the two-tailed Student's t test or the two factor ANOVA as appropriate. Individual differences in the dose-response curve was evaluated by the Newman-Keul multiple comparison.

[1] = Table I, formula (I) compounds, read-out: HGAL IC50
[2] = Table II, formula (II) compounds, read-out: hGAL IC50

SMILES	IC50 (hGALR-1; [2]) [nM]	further results
O=S1(=O)C=C(c2ccccc2)S(=O)(=O)CC1 [Cmpd 1]	–	IC50 (hGALR-1; [1]): 2700 nM
NC(Cc1ccccc1)C1=CS(=O)(=O)CCS1(=O)=O (centres unmarked) [Cmpd 3]	–	IC50 (hGALR-1; [1]): 8000 nM
CCCCOc1ccc(C(=O)NC(Cc2ccccc2)C2=CS(=O)(=O)CCS2(=O)=O)cc1 (centres unmarked) [Cmpd 4]	–	IC50 (hGALR-1; [1]): 1000 nM
O=S1(=O)C=C(c2ccccc2)S(=O)(=O)CCC1 [Cmpd 5]	2700	–
Cc1cccc(C2=CS(=O)(=O)CCCS2(=O)=O)c1 [Cmpd 6]	1300	–
COc1cccc(C2=CS(=O)(=O)CCCS2(=O)=O)c1 [Cmpd 7]	910	–
O=S1(=O)C=C(c2cccc(Cl)c2)S(=O)(=O)CCC1 [Cmpd 8]	1000	–
O=S1(=O)C=C(c2cccc(Br)c2)S(=O)(=O)CCC1 [Cmpd 9]	890	–
O=S1(=O)C=C(c2cccc(C(F)(F)F)c2)S(=O)(=O)CCC1 [Cmpd 11]	600	–
O=S1(=O)C=C(c2ccccc2Cl)S(=O)(=O)CCC1 [Cmpd 12]	640	–
O=S1(=O)C=C(c2ccc(Br)cc2)S(=O)(=O)CCC1 [Cmpd 13]	260	–
O=S1(=O)C=C(c2ccc(F)cc2)S(=O)(=O)CCC1 [Cmpd 14]	410	–
O=S1(=O)C=C(c2cccc(F)c2)S(=O)(=O)CCC1 [Cmpd 16]	–	Acetycholine Secretion Basal (change vs Control) (Rat Galanin-1 Receptor; 1 µM+GAL): -38.9%; Acetycholine Secretion Stimulated (change vs Control) (Rat Galanin-1 Receptor; 1 µM+GAL): -23.9%; Acetycholine Secretion Basal (Rat Galanin-1 Receptor; 1 µM+GAL): 2.20; Acetycholine Secretion Basal (change vs Control) (Rat Galanin-1 Receptor; 10 µM+GAL): -37%
O=S1(=O)C=C(c2ccc(I)cc2)S(=O)(=O)CCC1 [Cmpd 17]	710	Acetycholine Secretion Basal (change vs Control) (Rat Galanin-1 Receptor; 1 µM+GAL): -39.2%; Acetycholine Secretion Stimulated (change vs Control) (Rat Galanin-1 Receptor; 1 µM+GAL): -35.2%; Acetycholine Secretion Stimulated (Rat Galanin-1 Receptor; 1 µM+GAL): 5.37; Acetycholine Secretion Basal (Rat Galanin-1 Receptor; 1 µM+GAL): 2.19; Acetycholine Secretion Basal (change vs Control) (Rat Galanin-1 Receptor; 10 µM+GAL): -37%; Acetycholine Secretion Stimulated (change vs Control) (Rat Galanin-1 Receptor; 10 µM+GAL): -22.3%; Acetycholine Secretion Stimulated (Rat Galanin-1 Receptor; 10 µM+GAL): 6.44; Acetycholine Secretion Basal (Rat Galanin-1 Receptor; 10 µM+GAL): 2.27
Cc1ccccc1C1=CS(=O)(=O)CCCS1(=O)=O [Cmpd 18]	1600	–
O=S1(=O)C=C(c2ccc(Oc3ccccc3)cc2)S(=O)(=O)CCC1 [Cmpd 19]	410	–
O=S1(=O)C=C(c2cccc(OC(F)(F)F)c2)S(=O)(=O)CCC1 [Cmpd 20]	2700	–
O=S1(=O)C=C(c2ccc(C(F)(F)F)cc2)S(=O)(=O)CCC1 [Cmpd 22]	2100	–

SMILES	IC50 (hGALR-1; [2]) [nM]	further results
O=S1(=O)C=C(c2ccc(OC(F)(F)F)cc2)S(=O)(=O)CCC1 [Cmpd 23]	490	–
O=S1(=O)C=C(c2ccc(-c3ccccc3)cc2)S(=O)(=O)CCC1 [Cmpd 24]	600	–
O=S1(=O)C=C(c2ccc(C3CCCCC3)cc2)S(=O)(=O)CCC1 [Cmpd 25]	1100	–
CCc1ccc(C2=CS(=O)(=O)CCCS2(=O)=O)cc1 [Cmpd 26]	430	–
O=S1(=O)C=C(c2cccc(I)c2)S(=O)(=O)CCC1 [Cmpd 27]	850	–
CCOc1ccc(C2=CS(=O)(=O)CCCS2(=O)=O)cc1 [Cmpd 28]	590	–
O=S1(=O)C=C(c2ccccc2F)S(=O)(=O)CCC1 [Cmpd 29]	430	–
O=S1(=O)C=C(c2ccccc2Br)S(=O)(=O)CCC1 [Cmpd 30]	570	–
O=S1(=O)C=C(c2ccccc2C(F)(F)F)S(=O)(=O)CCC1 [Cmpd 31]	580	–
COc1ccccc1C1=CS(=O)(=O)CCCS1(=O)=O [Cmpd 32]	1000	–
O=C(Oc1ccccc1)c1cccc(C2=CS(=O)(=O)CCCS2(=O)=O)c1 [Cmpd 33]	440	–
CCOC(=O)c1ccc(C2=CS(=O)(=O)CCCS2(=O)=O)cc1 [Cmpd 34]	1000	–
O=S1(=O)C=C(c2ccc(S(=O)(=O)c3ccccc3)cc2)S(=O)(=O)CCC1 [Cmpd 35]	1580	–
CCCNC(=O)c1ccc(C2=CS(=O)(=O)CCCS2(=O)=O)cc1 [Cmpd 36]	1040	–
O=S1(=O)C=C(c2cccc3ccccc23)S(=O)(=O)CCC1 [Cmpd 37]	371	–
O=C(NCCc1ccccc1)c1ccc(C2=CS(=O)(=O)CCCS2(=O)=O)cc1 [Cmpd 38]	1060	–
O=S1(=O)C=C(c2cccs2)S(=O)(=O)CCC1 [Cmpd 40]	1300	–
O=S1(=O)C=C(c2ccsc2)S(=O)(=O)CCC1 [Cmpd 41]	1300	–
